According to ChEMBL document CHEMBL1125506, “Fluoronaphthyridines as antibacterial agents. 6. Synthesis and structure-activity relationships of new chiral 7-(1-, 3-, 4-, and 6-methyl-2,5-diazabicyclo[2.2.1]heptan-2-yl)naphthyridine analogues of 7-[(1R,4R)-2,5- diazabicyclo[2.2.1]heptan-2-yl]-1-(1,1-dimethylethyl)-6-fluoro-1,4-dihy …” (J Med Chem, 1992):

How the values were obtained:
[1] = Plasma half-life after peroral administration to mice; assay type: ADME, organism-based; details: mouse, po
Mus musculus [2] = assay: In vivo efficacy on systemic infections caused by Pseudomonas aeruginosa A9843 in mice after peroral administration; assay type: functional; details: po, read-out: PD50
Klebsiella pneumoniae = assay: In vitro antibacterial activity against Klebsiella pneumoniae A9664; assay type: functional
[3] = percent urinary recovery in 24 hr after intravenous administration to mice; assay type: ADME, organism-based; details: mouse, urine, read-out: UR
Pseudomonas aeruginosa = assay: In vitro antibacterial activity against Pseudomonas aeruginosa A9843; assay type: functional
Mus musculus [4] = assay: Area under curve measured as conc vs time after intravenous administration to mice.; assay type: ADME, organism-based; set-up: unit not given here; details: in vivo
Enterobacter cloacae = assay: In vitro antibacterial activity against Enterobacter cloacae A9656; assay type: functional
Serratia marcescens = assay: In vitro antibacterial activity against Serratia marcescens A20019; assay type: functional
Morganella morganii = assay: In vitro antibacterial activity against Morganella morganii A15153; assay type: functional
Mus musculus [5] = assay: Area under curve measured as conc vs time after peroral administration to mice.; assay type: ADME, organism-based; set-up: unit not given here; details: in vivo, po
Bacteroides fragilis = assay: In vitro antibacterial activity against Bacteroides fragilis A-22,862; assay type: functional
[6] = Percent urinary recovery in 24 hr after peroral administration to mice; assay type: ADME, organism-based; details: mouse, urine, po; read-out: UR
Mus musculus [7] = assay: In vivo efficacy on systemic infections caused by Staphylococcus aureus A15090 in mice after peroral administration; assay type: functional; details: po, read-out: PD50
Enterococcus faecalis = assay: In vitro antibacterial activity against Enterococcus faecalis A9809; assay type: functional
[8] = Peak concentration in blood after intravenous administration to mice; assay type: ADME, organism-based; set-up: route intravenous; details: mouse
Mus musculus [9] = assay: In vivo efficacy on systemic infections caused by Pseudomonas aeruginosa A9843 in mice after intramuscular administration; assay type: functional; details: im, read-out: PD50
Staphylococcus aureus = assay: In vitro antibacterial activity against Staphylococcus aureus A9537; assay type: functional
[10] = Partition coefficient (logD); assay type: physicochemical; details: octanol/water
[11] = Plasma half-life after intravenous administration to mice; assay type: ADME, organism-based; details: mouse
Escherichia coli = assay: In vitro antibacterial activity against Escherichia coli A15119; assay type: functional
[12] = Peak concentration in blood after peroral administration to mice; assay type: ADME, organism-based; set-up: route oral; details: mouse, po
[13] = Solubility (water, 22C, pH 7.2); assay type: physicochemical; details: read-out: S
Streptococcus pneumoniae = assay: In vitro antibacterial activity against Streptococcus pneumoniae A9585.; assay type: functional
Proteus mirabilis = assay: In vitro antibacterial activity against Proteus mirabilis A9900; assay type: functional
Mus musculus [14] = assay: In vivo efficacy on systemic infections caused by Escherichia coli A15119 in mice after intramuscular administration; assay type: functional; details: im, read-out: PD50
Mus musculus [15] = assay: In vivo efficacy on systemic infections caused by Staphylococcus aureus A15090 in mice after intramuscular administration; assay type: functional; details: im, read-out: PD50
Mus musculus [16] = assay: In vivo efficacy on systemic infections caused by Streptococcus pneumoniae A9585 in mice after peroral administration; assay type: functional; details: po, read-out: PD50
Mus musculus [17] = assay: In vivo efficacy on systemic infections caused by Streptococcus pneumoniae A9585 in mice after intramuscular administration; assay type: functional; details: im, read-out: PD50
[18] = Acute toxicity after intravenous administration to mice; assay type: organism-based; details: mouse, in vivo
[19] = Acute toxicity after peroral administration to mice; assay type: organism-based; details: mouse, in vivo, po

Structure (SMILES)	half-life [1] [h]	ED50 (Mus musculus [2]) [mg/kg]	MIC (Klebsiella pneumoniae) [mg/L]	dose excreted at 24 h [3] [%]	MIC (Pseudomonas aeruginosa) [mg/L]	AUC (Mus musculus [4])	MIC (Enterobacter cloacae) [mg/L]	MIC (Serratia marcescens) [mg/L]	MIC (Morganella morganii) [mg/L]	AUC (Mus musculus [5])	MIC (Bacteroides fragilis) [mg/L]	dose excreted at 24 h [6] [%]	ED50 (Mus musculus [7]) [mg/kg]	MIC (Enterococcus faecalis) [mg/L]	MIC (Staphylococcus aureus) [mg/L]	logD [10]	MIC (Escherichia coli) [mg/L]	solubility [13] [mg/mL]	MIC (Streptococcus pneumoniae) [mg/L]	MIC (Proteus mirabilis) [mg/L]	further results
C[C@H]1N[C@@H]2C[C@H]1N(c1nc3c(cc1F)c(=O)c(C(=O)O)cn3C(C)(C)C)C2.Cl	0.733	9.5	0.5	18	2	18	0.06	0.25	1	8	4	17	16.5	1	0.06	-0.12	0.03	6.34	0.5	0.5	Cmax [8]: 23 µg/mL; ED50 (Mus musculus [9]): 12.5 mg/kg; half-life [11]: 0.75 h; Cmax [12]: 11 µg/mL
Cc1c(F)c(N2C[C@H]3C[C@@H]2[C@H](C)N3)nc2c1c(=O)c(C(=O)O)cn2C(C)(C)C.Cl			0.13		2		0.03	0.5	0.5		16			0.5	0.016	1.3	0.03	0.25	0.5	0.5	
Cc1c(F)c(N2[C@H]3CN[C@H](C3)[C@@H]2C)nc2c1c(=O)c(C(=O)O)cn2C1CC1.Cl			0.016		0.25		0.016	0.13	0.13		4			0.25	0.016	0.73	0.016	0.07	0.13	0.13	
CC(C)(C)n1cc(C(=O)O)c(=O)c2cc(F)c(N3C[C@@]4(C)C[C@@H]3CN4)nc21.Cl			0.03		1		0.016	0.13	0.25		16			1	0.03	0.02	0.03	0.067	0.5	0.25	
Cc1c(F)c(N2C[C@H]3C[C@@H]2[C@@H](C)N3)nc2c1c(=O)c(C(=O)O)cn2C1CC1.Cl			0.06		1		0.06	0.5	0.25		8			0.25	0.016	0.71	0.016	0.15	0.13	0.25	
CC(C)(C)n1cc(C(=O)O)c(=O)c2cc(F)c(N3C[C@H]4C[C@]3(C)CN4)nc21.Cl			0.5		4		0.25	1	2		64			16	1	-0.37	0.25	0.006	2	2	
Cc1c(F)c(N2[C@H]3CN[C@H](C3)[C@H]2C)nc2c1c(=O)c(C(=O)O)cn2C1CC1.Cl			0.06		2		0.06	0.5	0.25		8			0.025	0.03	1	0.016	0.22	0.25	0.5	
Cc1c(F)c(N2C[C@H]3C[C@@H]2[C@H](C)N3)nc2c1c(=O)c(C(=O)O)cn2C1CC1.Cl	4.2	0.34	0.016	16	0.13	59	0.016	0.13	0.06	41	2	18	1.8	0.13	0.016	0.71	0.004	0.006	0.06	0.06	ED50 (Mus musculus [14]): 0.1 mg/kg; ED50 (Mus musculus [15]): 0.34 mg/kg; ED50 (Mus musculus [16]): 18.9 mg/kg; ED50 (Mus musculus [17]): 18.9 mg/kg; Cmax [8]: 12 µg/mL; ED50 (Mus musculus [9]): 0.78 mg/kg; half-life [11]: 4.8 h; Cmax [12]: 6 µg/mL
C[C@@H]1N[C@@H]2C[C@H]1N(c1nc3c(cc1F)c(=O)c(C(=O)O)cn3C(C)(C)C)C2.Cl	2.63	2.7	0.03	16	0.5	22	0.03	0.13	0.13	41	2	18	1.6	0.25	0.03	0.1	0.008	0.025	0.25	0.13	LD50 [18]: 263 mg/kg; ED50 (Mus musculus [15]): 0.9 mg/kg; ED50 (Mus musculus [16]): 25 mg/kg; ED50 (Mus musculus [17]): 14.4 mg/kg; Cmax [8]: 22 µg/mL; ED50 (Mus musculus [9]): 1.6 mg/kg; half-life [11]: 1.22 h; Cmax [12]: 9 µg/mL; LD50 [19]: > 2500 mg/kg
C[C@H]1[C@H]2C[C@H](CN2)N1c1nc2c(cc1F)c(=O)c(C(=O)O)cn2C(C)(C)C.Cl	1.08	22	0.5	16	2	22	0.13	0.25	1	17	8	16	5.4	1	0.06	-0.22	0.03	1.33	1	1	Cmax [8]: 22 µg/mL; ED50 (Mus musculus [9]): 12.5 mg/kg; half-life [11]: 1.22 h; Cmax [12]: 9 µg/mL
